Experimental data published in publication PMC5218480 (PLoS ONE, 2017).

Tested on: MV-4-11 cells
Assay: Gene expression microarray analysis (Affymetrix PrimeView) and GSEA
Assay type: cell-based, human
Parameters: RFU PODN (11730768_x_at) / Fold change /veh PODN (11730768_x_at) / RFU LINC00158 (11744669_a_at) / Fold change /veh LINC00158 (11744669_a_at) / RFU DUSP10 (11751237_a_at) / Fold change /veh DUSP10 (11751237_a_at) / RFU ID3 (11757404_x_at) / Fold change /veh ID3 (11757404_x_at) / RFU PLEKHG5 (11737974_s_at) / Fold change /veh PLEKHG5 (11737974_s_at) / RFU LRRC4B (11730491_at) / Fold change /veh LRRC4B (11730491_at) / RFU GIMAP4 (11747438_a_at) / Fold change /veh GIMAP4 (11747438_a_at) / RFU KRT8 (11758183_x_at) / Fold change /veh KRT8 (11758183_x_at) / RFU CNN1 (11734310_a_at) / Fold change /veh CNN1 (11734310_a_at) / RFU VPS37D (11726825_at) / Fold change /veh VPS37D (11726825_at) / RFU C10orf10 (11716522_x_at) / Fold change /veh C10orf10 (11716522_x_at) / RFU KIR2DL2 /// KIR2DL4 /// KIR2DL5A /// KIR2DL5B /// KIR2DS1 /// KIR2DS2 /// KIR2DS3 /// KIR2DS4 /// KIR3DL3 /// KIR3DL3 /// KIR3DS1 (11738374_at) / Fold change /veh KIR2DL2 /// KIR2DL4 /// KIR2DL5A /// KIR2DL5B /// KIR2DS1 /// KIR2DS2 /// KIR2DS3 /// KIR2DS4 /// KIR3DL3 /// KIR3DL3 /// KIR3DS1 (11738374_at) / RFU C1QL1 (11718748_at) / Fold change /veh C1QL1 (11718748_at) / RFU TMPRSS4 (11747572_a_at) / Fold change /veh TMPRSS4 (11747572_a_at) / RFU HAMP (11756126_x_at) / Fold change /veh HAMP (11756126_x_at) / RFU RNFT2 (11725882_a_at) / Fold change /veh RNFT2 (11725882_a_at) / RFU NR4A2 (11747474_a_at) / Fold change /veh NR4A2 (11747474_a_at) / RFU ABCC12 (11746883_a_at) / Fold change /veh ABCC12 (11746883_a_at) / RFU TMEM136 (11760407_x_at) / Fold change /veh TMEM136 (11760407_x_at) / RFU CLDN22 /// WWC2 (11732394_at) / Fold change /veh CLDN22 /// WWC2 (11732394_at) / RFU HLA-DPB1 (11760878_x_at) / Fold change /veh HLA-DPB1 (11760878_x_at) / RFU SPINT1 (11716480_a_at) / Fold change /veh SPINT1 (11716480_a_at) / RFU GAP43 (11754022_s_at) / Fold change /veh GAP43 (11754022_s_at) / RFU A4GNT (11735810_at) / Fold change /veh A4GNT (11735810_at) / RFU PRB3 (11715151_x_at) / Fold change /veh PRB3 (11715151_x_at) / RFU TUBB4B (11761932_at) / Fold change /veh TUBB4B (11761932_at) / RFU CAPN14 (11732068_a_at) / Fold change /veh CAPN14 (11732068_a_at) / RFU TMCC2 (11721928_a_at) / Fold change /veh TMCC2 (11721928_a_at) / RFU IRGQ (11745062_a_at) / Fold change /veh IRGQ (11745062_a_at) / RFU FAM174B (11720279_a_at) / Fold change /veh FAM174B (11720279_a_at) / RFU TMPRSS4 (11748680_a_at) / Fold change /veh TMPRSS4 (11748680_a_at) / RFU FAM212B (11763350_a_at) / Fold change /veh FAM212B (11763350_a_at) / RFU PLEKHG5 (11743358_a_at) / Fold change /veh PLEKHG5 (11743358_a_at) / RFU ZSCAN30 (11745921_a_at) / Fold change /veh ZSCAN30 (11745921_a_at) / RFU CMKLR1 (11741424_a_at) / Fold change /veh CMKLR1 (11741424_a_at) / RFU LOC101060620 /// MAPK8IP1 (11723275_at) / Fold change /veh LOC101060620 /// MAPK8IP1 (11723275_at) / RFU SPTSSB (11747773_x_at) / Fold change /veh SPTSSB (11747773_x_at) / RFU PRSS12 (11739890_at) / Fold change /veh PRSS12 (11739890_at) / RFU BIN1 (11741810_x_at) / Fold change /veh BIN1 (11741810_x_at) / RFU WNT11 (11732464_a_at) / Fold change /veh WNT11 (11732464_a_at) / RFU C10orf10 (11716521_a_at) / Fold change /veh C10orf10 (11716521_a_at) / RFU C5orf56 (11738089_at) / Fold change /veh C5orf56 (11738089_at) / RFU CYB561 (11721691_x_at) / Fold change /veh CYB561 (11721691_x_at) / RFU ANKRD19P (11752326_a_at) / Fold change /veh ANKRD19P (11752326_a_at) / RFU OR2T12 /// OR2T33 /// OR2T8 (11738714_s_at) / Fold change /veh OR2T12 /// OR2T33 /// OR2T8 (11738714_s_at) / RFU VCAN (11748164_a_at) / Fold change /veh VCAN (11748164_a_at) / RFU JSRP1 (11732532_at) / Fold change /veh JSRP1 (11732532_at) / RFU KRTAP10-11 (11738290_x_at) / Fold change /veh KRTAP10-11 (11738290_x_at) / RFU MYO3A (11730013_a_at) / Fold change /veh MYO3A (11730013_a_at) / RFU EBF3 (11725865_a_at) / Fold change /veh EBF3 (11725865_a_at) / RFU CAMK2N1 (11719241_x_at) / Fold change /veh CAMK2N1 (11719241_x_at) / RFU C5orf56 (11738088_a_at) / Fold change /veh C5orf56 (11738088_a_at) / RFU OLFML3 (11715873_a_at) / Fold change /veh OLFML3 (11715873_a_at) / RFU LOC100653217 /// NTM (11731650_a_at) / Fold change /veh LOC100653217 /// NTM (11731650_a_at) / RFU MAPK11 (11762145_a_at) / Fold change /veh MAPK11 (11762145_a_at) / RFU FIZ1 (11724087_x_at) / Fold change /veh FIZ1 (11724087_x_at) / RFU OASL (11726364_x_at) / Fold change /veh OASL (11726364_x_at) / RFU SOX15 (11748057_x_at) / Fold change /veh SOX15 (11748057_x_at) / RFU CD79A (11719716_a_at) / Fold change /veh CD79A (11719716_a_at) / RFU HIST1H1D (11736915_at) / Fold change /veh HIST1H1D (11736915_at) / RFU CASKIN2 (11723855_a_at) / Fold change /veh CASKIN2 (11723855_a_at) / RFU LOC730098 (11760151_x_at) / Fold change /veh LOC730098 (11760151_x_at) / RFU OR4N2 (11742367_at) / Fold change /veh OR4N2 (11742367_at) / RFU PRRT2 (11749266_a_at) / Fold change /veh PRRT2 (11749266_a_at) / RFU SNX32 (11753110_a_at) / Fold change /veh SNX32 (11753110_a_at) / RFU CDHR5 (11726645_a_at) / Fold change /veh CDHR5 (11726645_a_at) / RFU RCAN1 (11760418_a_at) / Fold change /veh RCAN1 (11760418_a_at) / RFU FAM167A (11723789_a_at) / Fold change /veh FAM167A (11723789_a_at) / RFU FAM26E (11764081_at) / Fold change /veh FAM26E (11764081_at) / RFU ISYNA1 (11749810_s_at) / Fold change /veh ISYNA1 (11749810_s_at) / RFU ACY1 (11761880_at) / Fold change /veh ACY1 (11761880_at) / RFU 11764098_at / Fold change /veh 11764098_at / RFU SAMD14 (11745864_x_at) / Fold change /veh SAMD14 (11745864_x_at) / RFU NPB (11741838_a_at) / Fold change /veh NPB (11741838_a_at) / RFU TMPRSS6 (11731388_a_at) / Fold change /veh TMPRSS6 (11731388_a_at) / RFU KRTAP10-2 (11738614_at) / Fold change /veh KRTAP10-2 (11738614_at) / RFU ARHGAP8 /// PRR5-ARHGAP8 (11727945_x_at) / Fold change /veh ARHGAP8 /// PRR5-ARHGAP8 (11727945_x_at) / RFU KRTAP5-7 /// NADSYN1 (11734609_at) / Fold change /veh KRTAP5-7 /// NADSYN1 (11734609_at) / RFU RASL12 (11751679_a_at) / Fold change /veh RASL12 (11751679_a_at) / RFU CDKN2B (11736163_a_at) / Fold change /veh CDKN2B (11736163_a_at) / RFU PRF1 (11729649_at) / Fold change /veh PRF1 (11729649_at) / RFU, ZNF638 /// ZNF638-IT1 / Fold change vs veh, ZNF638 /// ZNF638-IT1 / RFU, PANK3 / Fold change vs veh, PANK3 / RFU, SH3YL1 / Fold change vs veh, SH3YL1 / RFU, ZEB2 / Fold change vs veh, ZEB2 / RFU, NRIP1 / Fold change vs veh, NRIP1 / RFU, PTTG1IP / Fold change vs veh, PTTG1IP / RFU, CAPN2 / Fold change vs veh, CAPN2 / RFU, MED14 / Fold change vs veh, MED14 / RFU, SNORA58 / Fold change vs veh, SNORA58 / RFU, C1orf63 / Fold change vs veh, C1orf63 / RFU, LRRFIP1 / Fold change vs veh, LRRFIP1 / RFU, NDUFAF7 / Fold change vs veh, NDUFAF7 / RFU, SLC12A2 / Fold change vs veh, SLC12A2 / RFU, IBTK / Fold change vs veh, IBTK / RFU, ESF1 / Fold change vs veh, ESF1 / Fold change vs veh, TMEM50B / RFU, TAOK1 / Fold change vs veh, TAOK1 / RFU, ACBD3 / Fold change vs veh, ACBD3 / RFU, TMA16 / Fold change vs veh, TMA16 / RFU, RWDD3 / Fold change vs veh, RWDD3 / RFU, BCAT1 / Fold change vs veh, BCAT1 / RFU, EDEM3 / Fold change vs veh, EDEM3 / RFU, TMEM33 / Fold change vs veh, TMEM33 / RFU, WDR75 / Fold change vs veh, WDR75 / RFU, AHCTF1 / Fold change vs veh, AHCTF1 / RFU, TFRC / Fold change vs veh, TFRC / RFU, ZDHHC17 / Fold change vs veh, ZDHHC17 / RFU, NOM1 / Fold change vs veh, NOM1 / RFU, ARL8B / Fold change vs veh, ARL8B / RFU, ZBTB11 / Fold change vs veh, ZBTB11 / RFU, TAMM41 / Fold change vs veh, TAMM41 / RFU, KIAA1704 /// LOC100996395 / Fold change vs veh, KIAA1704 /// LOC100996395 / RFU, ING1 / Fold change vs veh, ING1 / RFU, TRMT61B / Fold change vs veh, TRMT61B / RFU, FUBP3 / Fold change vs veh, FUBP3 / RFU, TP53 / Fold change vs veh, TP53 / RFU, TNKS2 / Fold change vs veh, TNKS2 / RFU, ZFP14 / Fold change vs veh, ZFP14 / RFU, ACTR2 / Fold change vs veh, ACTR2 / RFU, PPP3R1 / Fold change vs veh, PPP3R1 / RFU, PIK3R1 / Fold change vs veh, PIK3R1 / RFU, HNRNPA1 / Fold change vs veh, HNRNPA1 / RFU, RNF170 / Fold change vs veh, RNF170 / RFU, ZNF28 / Fold change vs veh, ZNF28 / RFU, RNGTT / Fold change vs veh, RNGTT / RFU, OGT / Fold change vs veh, OGT / RFU, BRD1 / Fold change vs veh, BRD1 / RFU, MARS / Fold change vs veh, MARS / RFU, ZNF655 / Fold change vs veh, ZNF655 / RFU, FAHD1 / Fold change vs veh, FAHD1 / RFU, BDP1 / Fold change vs veh, BDP1 / RFU, LRRCC1 / Fold change vs veh, LRRCC1 / RFU, ARID1A / Fold change vs veh, ARID1A / RFU, ZNF146 / Fold change vs veh, ZNF146 / RFU, ZNF330 / Fold change vs veh, ZNF330 / RFU, GPN3 / Fold change vs veh, GPN3 / RFU, C9orf123 / Fold change vs veh, C9orf123 / RFU, N4BP2L2 / Fold change vs veh, N4BP2L2 / RFU, ARFIP1 / Fold change vs veh, ARFIP1 / RFU, FAM179B / Fold change vs veh, FAM179B / RFU, BCL10 / Fold change vs veh, BCL10 / RFU, UHRF1BP1L / Fold change vs veh, UHRF1BP1L / RFU, BET1 / Fold change vs veh, BET1 / RFU, CNOT2 / Fold change vs veh, CNOT2 / RFU, ZNF268 / Fold change vs veh, ZNF268 / Fold change vs veh, ZNF507 / RFU, DGCR2 / Fold change vs veh, DGCR2 / RFU, WDSUB1 / Fold change vs veh, WDSUB1 / Fold change vs veh, HSP90B1 /// MIR3652 / RFU, ADSS / Fold change vs veh, ADSS / RFU, GK / Fold change vs veh, GK / RFU, ZNF148 / Fold change vs veh, ZNF148 / RFU, TAF9 / Fold change vs veh, TAF9 / RFU, SLC1A5 / Fold change vs veh, SLC1A5 / RFU, SLMO2 / Fold change vs veh, SLMO2 / RFU, ABCC4 / Fold change vs veh, ABCC4 / RFU, LOC101060439 /// RAP1B / Fold change vs veh, LOC101060439 /// RAP1B / RFU, RFX7 / Fold change vs veh, RFX7 / RFU, GTPBP10 / Fold change vs veh, GTPBP10 / RFU, CNEP1R1 / Fold change vs veh, CNEP1R1 / RFU, BIVM-ERCC5 /// ERCC5 / Fold change vs veh, BIVM-ERCC5 /// ERCC5 / RFU, ILF3 / Fold change vs veh, ILF3 / RFU 11762660_at / Fold change /veh 11762660_at / RFU VCAN (11757783_s_at) / Fold change /veh VCAN (11757783_s_at) / RFU DDX43 (11728927_at) / Fold change /veh DDX43 (11728927_at) / RFU KRT8 (11758188_x_at) / Fold change /veh KRT8 (11758188_x_at) / RFU NKD1 (11759106_at) / Fold change /veh NKD1 (11759106_at) / RFU SRD5A1 (11742802_a_at) / Fold change /veh SRD5A1 (11742802_a_at) / RFU TPSAB1 /// TPSB2 (11721975_s_at) / Fold change /veh TPSAB1 /// TPSB2 (11721975_s_at) / RFU GSTM3 (11746129_a_at) / Fold change /veh GSTM3 (11746129_a_at) / RFU IL23R (11737362_x_at) / Fold change /veh IL23R (11737362_x_at) / RFU TMEM51 (11727254_a_at) / Fold change /veh TMEM51 (11727254_a_at) / RFU PIWIL2 (11732686_x_at) / Fold change /veh PIWIL2 (11732686_x_at) / RFU ORM1 (11744905_x_at) / Fold change /veh ORM1 (11744905_x_at) / RFU CCDC152 (11743942_at) / Fold change /veh CCDC152 (11743942_at) / RFU ECM1 (11717891_a_at) / Fold change /veh ECM1 (11717891_a_at) / RFU IL23R (11748794_a_at) / Fold change /veh IL23R (11748794_a_at) / RFU TNFAIP8L3 (11732012_x_at) / Fold change /veh TNFAIP8L3 (11732012_x_at) / RFU MBOAT4 (11741988_at) / Fold change /veh MBOAT4 (11741988_at) / RFU 11764193_at / Fold change /veh 11764193_at / RFU TMEM53 (11763286_at) / Fold change /veh TMEM53 (11763286_at) / RFU MAGEB2 (11727129_at) / Fold change /veh MAGEB2 (11727129_at) / RFU TMEM200A (11744735_a_at) / Fold change /veh TMEM200A (11744735_a_at) / RFU CCDC152 (11751479_a_at) / Fold change /veh CCDC152 (11751479_a_at) / RFU FAM211A (11726209_a_at) / Fold change /veh FAM211A (11726209_a_at) / RFU RGS16 (11746705_a_at) / Fold change /veh RGS16 (11746705_a_at) / RFU VCAN (11755009_s_at) / Fold change /veh VCAN (11755009_s_at) / RFU RHOB (11743442_s_at) / Fold change /veh RHOB (11743442_s_at) / RFU RGS16 (11720943_a_at) / Fold change /veh RGS16 (11720943_a_at) / RFU RGS16 (11720944_at) / Fold change /veh RGS16 (11720944_at) / RFU, VPS4B / Fold change vs veh, VPS4B / RFU, CREB1 / Fold change vs veh, CREB1 / RFU, DNAJC13 / Fold change vs veh, DNAJC13 / RFU, GNAQ / Fold change vs veh, GNAQ / RFU, CDK5R1 / Fold change vs veh, CDK5R1 / RFU, ZRANB3 / Fold change vs veh, ZRANB3 / RFU, CUL4A / Fold change vs veh, CUL4A / RFU, CCNY / Fold change vs veh, CCNY / RFU, UFL1 / Fold change vs veh, UFL1 / RFU, COG3 / Fold change vs veh, COG3 / RFU, DIAPH2 / Fold change vs veh, DIAPH2 / RFU, SKA2 / Fold change vs veh, SKA2 / RFU, AFF3 / Fold change vs veh, AFF3 / RFU, LMF1 / Fold change vs veh, LMF1 / RFU, IPO11 / Fold change vs veh, IPO11 / RFU, DFFB / Fold change vs veh, DFFB / RFU, FOXP1 / Fold change vs veh, FOXP1 / RFU, CARD8 / Fold change vs veh, CARD8 / RFU, STRN3 / Fold change vs veh, STRN3 / RFU, ADK / Fold change vs veh, ADK / RFU, RASSF2 / Fold change vs veh, RASSF2 / RFU, WIPF1 / Fold change vs veh, WIPF1 / RFU, LARP1B / Fold change vs veh, LARP1B / RFU, RASA1 / Fold change vs veh, RASA1 / RFU, RB1 / Fold change vs veh, RB1 / RFU, PPFIA1 / Fold change vs veh, PPFIA1 / RFU, MAT2A / Fold change vs veh, MAT2A / RFU, CCT5 / Fold change vs veh, CCT5 / RFU, WDR92 / Fold change vs veh, WDR92 / RFU, CUX1 / Fold change vs veh, CUX1 / RFU, TTC7A / Fold change vs veh, TTC7A / RFU, TMEM135 / Fold change vs veh, TMEM135 / RFU, DEPTOR / Fold change vs veh, DEPTOR / RFU, CPM / Fold change vs veh, CPM / RFU, DNAJB6 / Fold change vs veh, DNAJB6 / RFU, CACNA2D3 / Fold change vs veh, CACNA2D3 / RFU, DTX4 / Fold change vs veh, DTX4 / RFU, TFCP2 / Fold change vs veh, TFCP2 / RFU, GMCL1 /// GMCL1P1 / Fold change vs veh, GMCL1 /// GMCL1P1 / RFU, AEBP2 / Fold change vs veh, AEBP2 / RFU, SNHG1 /// SNORD22 /// SNORD25 /// SNORD26 /// SNORD27 /// SNORD28 /// SNORD29 /// SNORD31 / Fold change vs veh, SNHG1 /// SNORD22 /// SNORD25 /// SNORD26 /// SNORD27 /// SNORD28 /// SNORD29 /// SNORD31 / Fold change (Aza/veh), C12orf56 (ProbeSet 11735607_a_at) / Fold change (ACY-1035/veh), C12orf56 (ProbeSet 11735607_a_at) / Fold change (Aza/veh), FGFR1OP (ProbeSet 11751329_s_at) / Fold change (ACY-1035/veh), FGFR1OP (ProbeSet 11751329_s_at) / Fold change (Aza/veh), VPS36 (ProbeSet 11739960_a_at) / Fold change (ACY-1035/veh), VPS36 (ProbeSet 11739960_a_at) / RFU SYPL1 (11715823_x_at) / Fold change /veh SYPL1 (11715823_x_at) / RFU IGFBP7 (11715501_s_at) / Fold change /veh IGFBP7 (11715501_s_at) / RFU REEP3 (11722064_at) / Fold change /veh REEP3 (11722064_at) / RFU IGLL1 (11728026_x_at) / Fold change /veh IGLL1 (11728026_x_at): dose or concentration left out as unconfirmed
Conditions: ProbeSet 11750457_a_at; LIST B

Compound: Nc1ncn([C@@H]2O[C@H](CO)[C@@H](O)[C@H]2O)c(=O)n1 [azacitidine]
- Fold change vs veh, GTPBP10: 0.84
